From the OPERA property sets (Mansouri et al. 2018)

Details: for log10 BCF / log10 biotransformation half-life (days): fish

Row | SMILES | boiling point | melting point | also measured
1 | CC(C)COC(=O)C(C)C | 149 °C | -80.7 °C | log10 vapour pressure (mmHg): 0.636
2 | NCCN | 117 °C | 11.1 °C | log10 Henry constant (atm·m³/mol): -8.76; log10 vapour pressure (mmHg): 1.08; ready biodegradability: readily biodegradable
3 | N#CCCC#N | 266 °C | 54.5 °C | log10 vapour pressure (mmHg): -2.11
4 | O=[N+]([O-])c1ccsc1 | 225 °C | 78.5 °C | 
5 | O=C(O)c1ccc2c(c1)OCO2 |  | 229 °C | 
6 | C#CCOC | 63 °C |  | 
7 | CCOP(=S)(OCC)OC(Cl)C(Cl)(Cl)Cl (stereo not drawn) |  |  | log10 Koc (L/kg): 3.6; log10 vapour pressure (mmHg): -3.1
8 | O=C(Nc1ccccc1)c1ccccc1O |  | 136 °C | 
9 | COc1cccc(Cl)n1 | 186 °C |  | 
10 | Brc1cc(Br)c(Oc2cc(Br)c(Br)cc2Br)c(Br)c1 |  |  | logP: 7.82; log10 BCF: 6.15; log10 biotransformation half-life (days): 2.03
11 | ClCC1CC1 | 88 °C | -90.9 °C | 
12 | CCCCc1ccc(C=O)cc1 |  |  | ready biodegradability: not readily biodegradable
13 | COc1ccc(NC(C)=O)cc1 | 335 °C | 131 °C | log10 Koc (L/kg): 1.4
14 | ClC(Cl)[Si](Cl)(Cl)Cl | 145 °C |  | 
15 | CCN(CC)c1cccc(C)c1 | 232 °C |  | 
16 | CC(=O)c1ccc(C)cc1 | 226 °C | 28 °C | ready biodegradability: readily biodegradable
17 | CCCCCC(C)(C)CC | 161 °C |  | 
18 | CCCCCCCCOC(=O)CC | 228 °C | -42.6 °C | 
19 | Fc1cccc(F)c1-c1nnc(-c2ccccc2Cl)nn1 |  | 188 °C | 
20 | CCC=C(C)CO | 168 °C |  | 
21 | CCCCCCC(=O)CC | 190 °C | -8 °C | 

Row | SMILES | boiling point | melting point | also measured
22 | Clc1cc(Cl)c(-c2c(Cl)c(Cl)cc(Cl)c2Cl)cc1Cl |  |  | log10 Koa: 9.87; log10 biotransformation half-life (days): 2.45
23 | Cc1ccc(O)cn1 |  | 169 °C | 
24 | CCC(C)CC(C)(C)CC (stereo not drawn) | 156 °C |  | 
25 | O=C(c1ccccc1)c1cccc(C(F)(F)F)c1 |  | 52.5 °C | 
26 | FC(Cl)(Cl)C(Cl)Cl | 116 °C | -82.6 °C | 
27 | CN1CCc2cc3c(cc2[C@H]1[C@@H]1OC(=O)c2c1ccc1c2OCO1)OCO3 |  | 194 °C | 
28 | COC(=O)Nc1cccc(Cl)c1 |  |  | log10 Koc (L/kg): 2.15
29 | CCCCCC(=NO)C(C)=O |  | 59 °C | 
30 | O=[N+]([O-])c1ccc(C=NO)o1 |  | 163 °C | 
31 | CCc1cnc(C2=NC(C)(C(C)C)C(=O)N2)c(C(=O)O)c1 (stereo not drawn) |  | 171 °C | log10 Koc (L/kg): 0.85
32 | C[C@@H]1C[C@H]2[C@@H]3C[C@H](F)C4=CC(=O)C=C[C@]4(C)[C@H]3[C@@H](O)C[C@]2(C)[C@H]1C(=O)CO |  | 188 °C | 
33 | CCC(=O)O[C@H]1CC[C@H]2[C@@H]3CC[C@H]4CC(=O)[C@H](C)C[C@]4(C)[C@H]3CC[C@]12C |  | 128 °C | 
34 | CCOC(=O)c1cccnc1 | 224 °C | 8.5 °C | 
35 | ClC(Cl)(Br)CBr | 195 °C | -26 °C | log10 vapour pressure (mmHg): -0.0458
36 | CCCCCCCCS | 199 °C | -49.2 °C | log10 vapour pressure (mmHg): -0.372
37 | FCCCl | 53.1 °C | -50 °C | 
38 | O=C1OC(c2cc(Br)c(O)c(Br)c2)(c2cc(Br)c(O)c(Br)c2)c2ccccc21 |  | 296 °C | 
39 | CC(C)(C)Oc1ccccc1 | 186 °C | -24 °C | 
40 | Cc1cnc(C)c(C)n1 | 172 °C |  | 
41 | Cc1cccc(C#N)c1 | 213 °C | -23 °C | 
42 | CCC(C)C(C)C(C)(C)C (stereo not drawn) | 157 °C |  | 

Row | SMILES | boiling point | melting point | also measured
43 | CC[C@@H]1CN2CCc3c([nH]c4cccc(OC)c34)[C@H]2C[C@@H]1/C(=C\OC)C(=O)OC |  | 104 °C | 
44 | C1CCSC1 | 121 °C | -96.1 °C | log10 vapour pressure (mmHg): 1.26
45 | FC(F)(F)c1ccccc1 | 102 °C | -29.1 °C | log10 vapour pressure (mmHg): 1.59; ready biodegradability: not readily biodegradable; log10 BCF: 1.65; log10 biotransformation half-life (days): -0.48
46 | COc1ccccc1C=C(C(=O)O)c1ccccc1 |  | 158 °C | 
47 | Oc1c(Cl)cccc1Cl | 220 °C | 68.5 °C | log10 vapour pressure (mmHg): -1.48; ready biodegradability: not readily biodegradable; log10 BCF: 1.08
48 | Cc1ccc(N)cc1Br | 256 °C | 26 °C | 
49 | CCCCCCCCCCCCCCCCCC(=O)OCC(O)[C@H]1OC[C@@H](O)[C@@H]1O (stereo partly drawn) |  |  | ready biodegradability: readily biodegradable
50 | O=C1c2ccc(O)cc2OC(c2ccc(O)c(O)c2)C1O (stereo not drawn) |  | 227 °C | 
51 | N[C@H](CCC(=O)O)C(=O)O |  | 201 °C | 
52 | CC/C=C(\C)C(=O)O | 214 °C | 24.4 °C | 
53 | NN=C(c1ccccc1)c1ccccc1 |  | 96.5 °C | 
54 | NCCOCCO | 221 °C |  | log10 vapour pressure (mmHg): -2.81
55 | C1CSCS1 | 175 °C | -50 °C | 
56 | O=S(=O)(O)CCN1CCN(CCS(=O)(=O)O)CC1 |  |  | ready biodegradability: not readily biodegradable
57 | CCOC=Nc1ccccc1 | 214 °C |  | 
58 | S=P(N1CC1)(N1CC1)N1CC1 |  | 51.5 °C | 
59 | CC1CN(C2CCCCCCCCCCC2)CC(C)O1 (stereo not drawn) |  | 71 °C | log10 vapour pressure (mmHg): -5.44
60 | O=C=Nc1cccc(N=C=O)c1 |  | 50 °C | 
61 | SC1CCCCC1 | 159 °C |  | log10 vapour pressure (mmHg): 0.598
